Measured values as given in patent publication US4485110A, “β-Lactam compounds, and use” (priority 1980, dated 1984).
Read-outs that look alike come from different tables or passages of the source.

Tests used:
Format in all cases: cell-based
[1] = test system: E. cloacae N1; assay: β-Lactamase inhibitory activity: antibiotic MIC alone or in combination; conditions: for MIC: Enterobacter cloacae
[2] = test system: E. coli 0111; assay: as above
Description: (§1) These tables show the MIC values of amoxycillin, cephaloridine, ticarcillin and apalcillin against a number of β-lactamase producing organisms.

[3] = test system: K. aerogenes Ba95R+; assay: as above; conditions: Klebsiella aerogenes
Description: as §1

[4] = test system: E. coli JT39R+; assay: as above; conditions: for MIC: Escherichia coli
Description: as §1

[5] = test system: S. aureus MB9; assay: as above; conditions: Staphylococcus aureus
Description: as §1

[6] = test system: P. morganii 1580; assay: as above
Description: as §1

[7] = test system: E. coli JT20R+; assay: as above; conditions: Escherichia coli
Description: as §1

[8] = test system: K. aerogenes I112; assay: as above; conditions: for MIC: Klebsiella aerogenes
Description: as §1

[9] = test system: P. aeruginosa A; assay: as above; conditions: Pseudomonas aeruginosa
Description: as §1

[10] = test system: E. coli JT410 C+; assay: as above; conditions: for MIC: Escherichia coli
Description: as §1

[11] = test system: P. mirabilis 889; assay: as above
Description: as §1

[12] = test system: K. aerogenes A; assay: as above; conditions: Klebsiella aerogenes
Description: as §1

[13] = test system: S. marcescens US20; assay: as above; conditions: for MIC: Serratia marcescens
Description: as §1

[14] = test system: P. vulgaris WO91; assay: as above; conditions: for MIC: Proteus vulgaris
Description: as §1

[15] = test system: P. aeruginosa Dalgleish; assay: as above; conditions: Pseudomonas aeruginosa
Description: as §1

[16] = test system: C. freundii E8; assay: as above; conditions: for MIC: Citrobacter freundii
Description: as §1

[17] = test system: C. freundii B10R+; assay: as above; conditions: Citrobacter freundii
Description: as §1

[18] = test system: S. aureus Russell; assay: as above; conditions: Staphylococcus aureus
Description: as §1

[19] = test system: P. rettgeri WM16; assay: as above; conditions: for MIC: Providencia rettgeri
Description: as §1

[20] = test system: P. mirabilis 977; assay: as above
Description: as §1

[21] = test system: E. coli 0111; assay: Antibacterial activity, broth MIC; conditions: Escherichia coli, compound alone
Description: (§2) The antibacterial activity of a number of compounds described in the foregoing Examples against a number of organisms is shown in Tables 1 and 10.

[22] = test system: C. freundii E 8; assay: Antibacterial activity, broth MIC; conditions: Citrobacter freundii, E8; compound alone, broth; read-out: Broth MIC
Description: as §2

[23] = test system: P. vulgaris WO 91; assay: Antibacterial activity, broth MIC; conditions: Proteus vulgaris, WO91, compound alone
Description: as §2

[24] = test system: S. pneumoniae CN 33; assay: Antibacterial activity, broth MIC; conditions: Streptococcus pneumoniae, CN33, compound alone
Description: as §2

[25] = test system: S. faecalis I; assay: Antibacterial activity, broth MIC; conditions: Enterococcus faecalis; compound alone, broth; read-out: Broth MIC
Description: as §2

[26] = test system: E. cloacae N 1; assay: Antibacterial activity, broth MIC; conditions: Enterobacter cloacae, N1, compound alone
Description: as §2

[27] = test system: S. marcescens US 20; assay: Antibacterial activity, broth MIC; conditions: Serratia marcescens, US20; compound alone, broth; read-out: Broth MIC
Description: as §2

[28] = test system: S. aureus 1517; assay: Antibacterial activity, broth MIC; conditions: Staphylococcus aureus, compound alone
Description: as §2

[29] = test system: S. sonnei MB 11967; assay: Antibacterial activity, broth MIC; conditions: Shigella sonnei, MB11967, compound alone
Description: as §2

[30] = test system: B. subtilis A; assay: Antibacterial activity, broth MIC; conditions: Bacillus subtilis, compound alone
Description: as §2

[31] = test system: P. aeruginosa A; assay: Antibacterial activity, broth MIC; conditions: Pseudomonas aeruginosa, compound alone
Description: as §2

[32] = test system: S. aureus Oxford; assay: Antibacterial activity, broth MIC; conditions: Staphylococcus aureus, compound alone
Description: as §2

[33] = test system: K. aerogenes A; assay: Antibacterial activity, broth MIC; conditions: Klebsiella aerogenes; compound alone, broth; read-out: Broth MIC
Description: as §2

[34] = test system: S. pyogenes CN 10; assay: Antibacterial activity, broth MIC; conditions: Streptococcus pyogenes, CN10, compound alone
Description: as §2

[35] = test system: E. coli ESS; assay: Antibacterial activity, broth MIC; conditions: Escherichia coli, read-out: Broth MIC
Description: as §2

[36] = test system: E. coli JT 39 R^+; assay: Antibacterial activity, broth MIC; conditions: Escherichia coli; compound alone, broth; read-out: Broth MIC
Description: as §2

[37] = test system: P. rettgeri WM 16; assay: Antibacterial activity, broth MIC; conditions: Providencia rettgeri, WM16, compound alone
Description: as §2

[38] = test system: S. typhimurium CT 10; assay: Antibacterial activity, broth MIC; conditions: Salmonella enterica, compound alone
Description: as §2

[39] = test system: S. aureus Russell; assay: Antibacterial activity, broth MIC; conditions: Staphylococcus aureus, compound alone
Description: as §2

[40] = test system: P. morganii I 580; assay: Antibacterial activity, broth MIC; conditions: Morganella morganii, I580, compound alone
Description: as §2

[41] = test system: P. mirabilis 977; assay: Antibacterial activity, broth MIC; conditions: Proteus mirabilis, compound alone
Description: as §2

[42] = apalcillin alone, read-out: Apalcillin MIC
[43] = ticarcillin alone, read-out: Ticarcillin MIC
[44] = cephaloridine alone, read-out: Cephaloridine MIC

SMILES: CC1(C)S[C@@H]2[C@H](NC(=O)[C@H](NC(=O)c3cnc4cccnc4c3O)c3ccccc3)C(=O)N2[C@H]1C(=O)O [Apalcillin]
- MIC ([1]; N1, apalcillin alone, read-out: Apalcillin MIC): 5 µg/mL
- MIC ([2]; Escherichia coli, 0111, apalcillin alone, read-out: Apalcillin MIC): 2.5 µg/mL
- MIC ([3]; read-out: Apalcillin MIC): > 1000 µg/mL
- MIC ([4]; read-out: Apalcillin MIC, apalcillin alone): 1000 µg/mL
- MIC ([5]; MB9, apalcillin alone, read-out: Apalcillin MIC): 50 µg/mL
- MIC ([6]; Morganella morganii, 1580, apalcillin alone, read-out: Apalcillin MIC): 1000 µg/mL
- MIC ([7]; read-out: Apalcillin MIC): > 1000 µg/mL
- MIC ([8]; I112, read-out: Apalcillin MIC, apalcillin alone): 25 µg/mL
- MIC [9, 42]: 2.5 µg/mL
- MIC [10, 42]: 25 µg/mL
- MIC ([11]; Proteus mirabilis, 889, apalcillin alone, read-out: Apalcillin MIC): > 1000 µg/mL
- MIC [12, 42]: 10 µg/mL
- MIC ([13]; US20, apalcillin alone, read-out: Apalcillin MIC): 5 µg/mL
- MIC ([14]; WO91, apalcillin alone, read-out: Apalcillin MIC): 10 µg/mL
- MIC [15, 42]: > 1000 µg/mL
- MIC ([16]; E8, apalcillin alone, read-out: Apalcillin MIC): 2.5 µg/mL
- MIC ([17]; read-out: Apalcillin MIC): > 1000 µg/mL
- MIC [18, 42]: 250 µg/mL
- MIC ([19]; WM16, apalcillin alone, read-out: Apalcillin MIC): 10 µg/mL
- MIC ([20]; Proteus mirabilis, 977, apalcillin alone, read-out: Apalcillin MIC): 2.5 µg/mL

SMILES: CC1(C)S[C@@H]2[C@H](NC(=O)[C@H](C(=O)O)c3ccsc3)C(=O)N2[C@H]1C(=O)O [Ticarcillin]
- MIC ([1]; N1, ticarcillin alone, read-out: Ticarcillin MIC): 2.5 µg/mL
- MIC ([2]; Escherichia coli, 0111, ticarcillin alone, read-out: Ticarcillin MIC): 5 µg/mL
- MIC ([3]; read-out: Ticarcillin MIC): > 1000 µg/mL
- MIC ([4]; read-out: Ticarcillin MIC, ticarcillin alone): > 1000 µg/mL
- MIC ([5]; MB9, ticarcillin alone, read-out: Ticarcillin MIC): 10 µg/mL
- MIC ([7]; read-out: Ticarcillin MIC): > 1000 µg/mL
- MIC ([8]; I112, read-out: Ticarcillin MIC, ticarcillin alone): 500 µg/mL
- Ticarcillin MIC ([8]; ticarcillin alone): 250 µg/mL
- MIC [9, 43]: 25 µg/mL
- MIC ([11]; Proteus mirabilis, 889, ticarcillin alone, read-out: Ticarcillin MIC): > 1000 µg/mL
- MIC [12, 43]: 100 µg/mL
- MIC ([13]; US20, ticarcillin alone, read-out: Ticarcillin MIC): 5 µg/mL
- MIC [15, 43]: > 1000 µg/mL
- MIC ([16]; E8, ticarcillin alone, read-out: Ticarcillin MIC): 2.5 µg/mL
- Ticarcillin MIC ([16]; ticarcillin alone): 5.0 µg/mL
- MIC ([17]; read-out: Ticarcillin MIC): > 1000 µg/mL
- MIC [18, 43]: 25 µg/mL
- MIC ([20]; Proteus mirabilis, 977, ticarcillin alone, read-out: Ticarcillin MIC): 1 µg/mL

SMILES: CCSC1=C(C(=O)O)N2C(=O)C(=Cc3ccccc3)C2S1 (stereo not drawn) [Compound 118, (5RS)-Sodium (Z)-6-Benzylidene-2-ethylthiopenem-3-carboxylate]
- MIC [21]: > 100 µg/mL
- MIC [22]: > 100 µg/mL
- MIC [23]: > 100 µg/mL
- MIC [24]: 1.6 µg/mL
- MIC [25]: > 100 µg/mL
- MIC [26]: > 100 µg/mL
- MIC [27]: > 100 µg/mL
- MIC [28]: 100 µg/mL
- MIC [29]: > 100 µg/mL
- MIC [30]: 12.5 µg/mL
- MIC [31]: > 100 µg/mL
- MIC [32]: 1.6 µg/mL
- MIC [33]: > 100 µg/mL
- MIC [34]: 1.6 µg/mL
- MIC [35]: > 1.6 µg/mL
- MIC [36]: > 100 µg/mL
- MIC [37]: > 100 µg/mL
- MIC [38]: > 100 µg/mL
- MIC [39]: 3.1 µg/mL
- MIC [40]: > 100 µg/mL
- MIC [41]: > 100 µg/mL

SMILES: O=C(Cc1cccs1)N[C@@H]1C(=O)N2C(C(=O)[O-])=C(C[n+]3ccccc3)CS[C@H]12 [Cephaloridine]
- MIC ([1]; N1, cephaloridine alone, read-out: Cephaloridine MIC): 500 µg/mL
- Cephaloridine MIC ([1]; cephaloridine alone): 1000 µg/mL
- MIC ([2]; Escherichia coli, 0111, cephaloridine alone, read-out: Cephaloridine MIC): 2.5 µg/mL
- Cephaloridine MIC ([2]; cephaloridine alone): 5.0 µg/mL
- MIC ([3]; read-out: Cephaloridine MIC): 100 µg/mL
- MIC ([4]; read-out: Cephaloridine MIC, cephaloridine alone): 5 µg/mL
- Cephaloridine MIC ([4]; cephaloridine alone): 10 µg/mL
- MIC ([5]; MB9, cephaloridine alone, read-out: Cephaloridine MIC): < 0.2 µg/mL
- MIC ([6]; Morganella morganii, 1580, cephaloridine alone, read-out: Cephaloridine MIC): 1000 µg/mL
- Cephaloridine MIC ([6]; cephaloridine alone): > 1000 µg/mL
- MIC ([7]; read-out: Cephaloridine MIC): 25 µg/mL
- MIC ([8]; I112, read-out: Cephaloridine MIC, cephaloridine alone): 5 µg/mL
- MIC [9, 44]: > 1000 µg/mL
- MIC [10, 44]: 50 µg/mL
- Cephaloridine MIC ([10]; cephaloridine alone): 100 µg/mL
- MIC [12, 44]: 2.5 µg/mL
- MIC ([13]; US20, cephaloridine alone, read-out: Cephaloridine MIC): 1000 µg/mL
- Cephaloridine MIC ([13]; cephaloridine alone): > 1000 µg/mL
- MIC ([14]; WO91, cephaloridine alone, read-out: Cephaloridine MIC): 1000 µg/mL
- Cephaloridine MIC ([14]; cephaloridine alone): > 1000 µg/mL
- MIC [15, 44]: > 1000 µg/mL
- MIC ([16]; E8, cephaloridine alone, read-out: Cephaloridine MIC): 500 µg/mL
- MIC ([17]; read-out: Cephaloridine MIC): > 1000 µg/mL
- MIC ([19]; WM16, cephaloridine alone, read-out: Cephaloridine MIC): 1000 µg/mL
- Cephaloridine MIC ([19]; cephaloridine alone): > 1000 µg/mL
- MIC ([20]; Proteus mirabilis, 977, cephaloridine alone, read-out: Cephaloridine MIC): 10 µg/mL
- Cephaloridine MIC ([20]; cephaloridine alone): 5.0 µg/mL
